The values that follow come from article PMC10874388, “Cyclic peptides discriminate BCL-2 and its clinical mutants from BCL-XL by engaging a single-residue discrepancy” (Nature Communications, 2024).

Where “and” joins values, the source holds several entries; their conditions need not be identical. Equal values may be shown once. Starred links: 1 amine or outer side, 2 acyl side, 3 side chain; linkers in the order of their positions; H or OH if unused. Positions of bridges follow the written chain, without caps; N, C: chain ends. Residues, ends and D or L forms follow the SMILES beside them. No end group written: not given here. X1 = O=C(C[*:2])NCCNC(=O)c1ccc(C2=N[C@H](C(=O)[*:1])CS2)cc1; cADT = 2-aryl-4,5-dihydrothiazole (ADT) linker

Test [1] has as its system Jurkat cells. Kind of test: Apoptosis assay, Annexin V-FITC/PI staining and flow cytometry. Format: cell-based. As to conditions: for cell apoptosis(%): Figure 6b, replicate values; for Proportion of apoptotic cells: Jurkat, 24 h. Here is the method: Jurkat cells were seeded to 6-well plates at a density of 4 ×10^5 cells per well. Cells were incubated in the presence of DMSO, venetoclax at 2.5 μM, cp1-TAT at 30 μM, cp2-TAT at 30 μM, or cp3-TAT at 20 μM in serum-free RPMI medium for 4 h. After being incubated totally for 24 h, cells were washed once with PBS and stained with 100 μL binding buffer containing 5 μL Annexin V-FITC and 10 μL PI for 15 min, followed by addition of 400 μL binding buffer to detect cell apoptosis with FCM (BD FACSAria Fusion). Statistical analysis was performed using software FlowJo V10 and GraphPad Prism 7.0.

Test [2] deals with Jurkat cells. The test is described as follows: Mitochondrial membrane potential (JC-1), flow cytometry and fluorescence microscopy. Format: cell-based. The following applies: for Q1(%) / Q1(%)/Q3(%) / Q3(%): Figure 6d, 4h, replicate values; for ΔΨm (ratio of red over green fluorescence, Q1/Q3) / Relative ΔΨm by JC-1 fluorescence staining (microscopy): Jurkat; for ΔΨm (ratio of red over green fluorescence, Q1/Q3): 4 h treatment, JC-1, flow cytometry, n = 3; for Relative ΔΨm by JC-1 fluorescence staining (microscopy): 24 h treatment (Supplementary Fig. 13). As to the method: For the mitochondrial membrane potential (ΔΨm) analysis, the mitochondrial membrane potential assay kit with JC-1 dye (Beyotime, C2006) was used according to the manufacturer’s protocol. […] The value of ΔΨm was expressed as the ratio of red fluorescence intensity over green fluorescence intensity. After treated with JC-1, fluorescence intensity of Jurkat cells was tested by flow cytometry (BD FACSAria Fusion) and fluorescence microscopy (NIKON Ti-E), respectively. All experiments were performed in triplicate. Statistical analysis was performed using software GraphPad Prism 7.0.

A further test relates to RS4:11 cells. The test is described as follows: Cell viability assay (CellTiter-Glo), RS4:11. Format: cell-based. The following applies: RS4:11, single wells. Here is the method:
(§1) The cell lines Jurkat (TIB-152), El4 (TIB-39), Daudi (ccl-213), RS4:11 (crl-1873), A549 (ccl-185), HepG2 (hb-8065) and PANC-1 (crl-1469) were purchased from ATCC (American Type Culture Collection), and MGC-803 (C6582) was purchased from Beyotime (https://www.beyotime.com/product/C6582.htm). […] Daudi and RS4:11 cells were cultured in RPMI-1640 medium (HyClone, SH30809.01) and 10% FBS (Gibco, 10099-141), whereas HepG2, MGC-803 and PANC-1 cells were cultured in MDEM (HyClone, SH30243.01). Cells were maintained at 37 °C under a humidified, 5% (v/v) CO2-containing atmosphere.
(§2) Cell viability was measured using CellTiter-Glo® 2.0 Reagent (Promega, G9242). […] After different inhibitors were added into serum-free medium and cultured for 4 h (RS4:11 for 6 h), FBS were supplemented to 10% and then incubated totally for 24 h or 48 h. Finally, the IC50 values were calculated based on measurements using a microplate reader (Thermo, Varioskan LUX). Statistical analysis was performed using software GraphPad Prism 7.0.

The next test has as its system Daudi cells. The test is described as follows: Cell viability assay (CellTiter-Glo), Daudi. Format: cell-based. As to conditions: 48 h treatment, CellTiter-Glo. As to the method:
as §1, §2

The target of test [3] is T1, human BCL-XL (residues 1-210, with 27-81 and 210-233 removed) (human, UniProt Q07817-1 1-209, 27-81 removed, biotin (biotinylated for SPR; site not stated)).
T1 construct: BCL-XL, human; printed as residues 1-210, with 27-81 and 210-233 removed (so the last residue is 209 or 210); source: E. coli BL21 (DE3), purified (Ni-NTA, Superdex 75, RESOURCE Q, Superdex 200)
The test is described as follows: SPR; Biacore T200; biotinylated proteins immobilised on a CAP sensor chip; peptides flowed in multiple cycles (25-12800 nM, depending on the peptides) at 30 uL/min; 10 mM PBS, 50 uM EDTA, 0.05% Tween-20, 25 °C; affinity fitting, 1:1 binding model. The following applies: both partners purified.

Test [4] concerns the target T2, chimeric human BCL-2 (residues 1-50 and 92-207, residues 35-50 replaced with residues 33-48 of BCL-XL) (human, UniProt P10415 1-34; Q07817-1 33-48; P10415 92-207, biotin (biotinylated for SPR; site not stated)).
T2 construct: BCL-2, human, residues 1-34 of the chimera (internal loop 51-91 removed; residues 35-50 replaced with residues 33-48 of BCL-XL); BCL-XL, human, residues 33-48, in place of BCL-2 residues 35-50; BCL-2, human, residues 92-207; Biotinylated for SPR; used as such for crystals and fluorescence polarisation; also called BCL-2 WT; source: E. coli BL21 (DE3), purified (Ni-NTA, Superdex 75, RESOURCE Q, …)
T2 chain (looked up): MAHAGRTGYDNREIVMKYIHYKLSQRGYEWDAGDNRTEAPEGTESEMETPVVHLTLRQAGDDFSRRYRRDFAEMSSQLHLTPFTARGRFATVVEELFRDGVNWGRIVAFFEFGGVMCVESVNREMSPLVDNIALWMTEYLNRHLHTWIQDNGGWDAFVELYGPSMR
Described as above. The following applies: both partners purified.

T1 sequence (Q07817 other isoform, or with tags, fused parts or gaps 27-81 removed | 27-81 removed): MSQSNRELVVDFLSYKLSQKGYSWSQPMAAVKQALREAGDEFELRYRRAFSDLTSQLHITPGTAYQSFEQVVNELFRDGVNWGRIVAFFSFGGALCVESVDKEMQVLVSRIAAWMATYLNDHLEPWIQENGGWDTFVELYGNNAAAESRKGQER

With `CC[C@H](C)[C@@H]1NC(=O)[C@@H]2CCCN2C(=O)[C@@H]2CSC(=N2)c2ccc(cc2)C(=O)NCCNC(=O)CSC[C@@H](C(=O)NCC(=O)N[C@@H](CO)C(=O)NCC(=O)N[C@@H](CO)C(=O)N[C@@H](CCCNC(=N)N)C(=O)N[C@@H](CCCCN)C(=O)N[C@@H](CCCCN)C(=O)N[C@@H](CCCNC(=N)N)C(=O)N[C@@H](CCCNC(=N)N)C(=O)N[C@@H](CCC(N)=O)C(=O)N[C@@H](CCCNC(=N)N)C(=O)N[C@@H](CCCNC(=N)N)C(=O)N[C@@H](CCCNC(=N)N)C(N)=O)NC(=O)[C@H](Cc2ccccc2)NC(=O)[C@H](CCC(=O)O)NC(=O)[C@H](CC(=O)O)NC(=O)[C@H](Cc2c[nH]c3ccccc23)NC(=O)[C@H](CCC(=O)O)NC(=O)[C@H](Cc2ccc(O)cc2)NC(=O)[C@H](CCCNC(=N)N)NC1=O` [cp2-TAT] (PIRYEWDEFCGSGSRKKRRQRRR-NH2; linker N-10 via X1; C-terminus assumed), the “cell apoptosis(%)” value in the test with Jurkat cells [1] is 18.83% and 24.52%. Also, the “Proportion of apoptotic cells” value in the test on Jurkat cells [1] (30 μM) came out at 18.83%. In addition, in the test on Jurkat cells [2], the “Q1(%)” value is 90.3% and 89.6% and 90%. For the same molecule, in the test on Jurkat cells [2], the “Q1(%)/Q3(%)” value is 12.1534 and 10.7049 and 11.4358. In the test on Jurkat cells [2], the “Q3(%)” value was 7.43% and 8.37% and 7.87%. Moreover, the “ΔΨm (ratio of red over green fluorescence, Q1/Q3)” value with Jurkat cells [2] worked out at 11.43. Moreover, the “Relative ΔΨm by JC-1 fluorescence staining (microscopy)” value in the test with Jurkat cells [2] is “slightly decreased”. The raw luminescence reading in the test on RS4:11 cells (0.0488281 uM) is 377400 and 399400 and 472900 and 398600 and 396500 and 376600; in the test with RS4:11 cells (0.0976562 uM), 367900 and 411600 and 442500 and 406100 and 405700 and 384000; in the test on RS4:11 cells (0.195312 uM) it was 397400 and 403000 and 448800 and 404500 and 392400 and 382800; in the test on RS4:11 cells (0.390625 uM) it was 444700 and 450800 and 451700 and 438000 and 424700 and 412100; in the test on RS4:11 cells (0.78125 uM), 472600 and 478400 and 471500 and 453400 and 442900 and 434600; with RS4:11 cells (1.5625 uM) it was 448100 and 455300 and 501800 and 445000 and 424900 and 404900. Also, the raw luminescence reading in the test with RS4:11 cells (3.125 uM) is 365800 and 401400 and 456400 and 498100 and 396600 and 403200; in the test with RS4:11 cells (6.25 uM) it was 354100 and 405500 and 450900 and 485900 and 401500 and 412400; with RS4:11 cells (12.5 uM), 349800 and 390500 and 462000 and 475300 and 407800 and 417800; with RS4:11 cells (25 uM) it was 354900 and 371900 and 417300 and 420500 and 396000 and 400300; in the test on RS4:11 cells (50 uM), 273500 and 288400 and 308900 and 317300 and 306600 and 319600; in the test with RS4:11 cells (100 uM), 86770 and 92180 and 107300 and 109400 and 97150 and 101700. In addition, the inhibition rate is 9% in the test on RS4:11 cells (0.0488281 uM, 0.0488281 µM); -7.55% and -9% and -6% and -2.71% and 0.339% with RS4:11 cells (0.390625 uM, 0.390625 µM); -14% in the test on RS4:11 cells (0.78125 uM, 0.78125 µM); 34% and 30% and 25% and 23% and 26% in the test on RS4:11 cells (50 uM, 50 µM); 79% and 78% and 74% and 77% and 75% with RS4:11 cells (100 uM, 100 µM).

On to `CC[C@H](C)[C@@H]1NC(=O)[C@@H]2CCCN2C(=O)[C@@H]2CSC(=N2)c2ccc(cc2)C(=O)NCCNC(=O)CSC[C@@H](C(=O)NCC(=O)N[C@@H](CO)C(=O)NCC(=O)N[C@@H](CO)C(=O)N[C@@H](CCCNC(=N)N)C(=O)N[C@@H](CCCCN)C(=O)N[C@@H](CCCCN)C(=O)N[C@@H](CCCNC(=N)N)C(=O)N[C@@H](CCCNC(=N)N)C(=O)N[C@@H](CCC(N)=O)C(=O)N[C@@H](CCCNC(=N)N)C(=O)N[C@@H](CCCNC(=N)N)C(=O)N[C@@H](CCCNC(=N)N)C(N)=O)NC(=O)[C@H](CCC(=O)O)NC(=O)[C@H](C(C)C)NC(=O)[C@H](CC(=O)O)NC(=O)[C@H](Cc2c[nH]c3ccccc23)NC(=O)[C@@H]2CCCN2C(=O)[C@H](Cc2ccc(O)cc2)NC(=O)[C@H](CCCNC(=N)N)NC1=O` [cp3-TAT] (PIRYPWDVECGSGSRKKRRQRRR-NH2; linker N-10 via X1; C-terminus assumed), for which, in the test with Jurkat cells [1], the “cell apoptosis(%)” value is 99.03% and 93.5%. Besides, the “Proportion of apoptotic cells” value with Jurkat cells [1] (20 μM) stood at 99.03%. Further, the “Q1(%)” value in the test on Jurkat cells [2] is 56.7% and 57.7% and 59.6%. Besides, in the test with Jurkat cells [2], the “Q1(%)/Q3(%)” value is 1.435 and 1.514 and 1.628. Also, the “Q3(%)” value in the test on Jurkat cells [2] was 39.5% and 38.1% and 36.6%. The “ΔΨm (ratio of red over green fluorescence, Q1/Q3)” value in the test with Jurkat cells [2] is reported as 1.53. For the same molecule, the “Relative ΔΨm by JC-1 fluorescence staining (microscopy)” value in the test on Jurkat cells [2] is given as “red fluorescence almost disappeared”. This molecule also showed an IC50 with Daudi cells of 7940 nM. Moreover, the raw luminescence reading in the test on RS4:11 cells (0.0488281 uM) was 433900 and 423300 and 457600 and 413600 and 399000 and 376500; in the test on RS4:11 cells (0.0976562 uM) it was 420200 and 404600 and 437700 and 401400 and 384500 and 361600; in the test on RS4:11 cells (0.195312 uM), 419000 and 421800 and 444400 and 422500 and 407600 and 396300; in the test with RS4:11 cells (0.390625 uM) it was 424000 and 396600 and 443200 and 395300 and 386700 and 379800; in the test on RS4:11 cells (0.78125 uM), 411200 and 409100 and 439500 and 400400 and 395700 and 387400; with RS4:11 cells (1.5625 uM), 353400 and 425900 and 446500 and 460500 and 369200 and 455200. The raw luminescence reading with RS4:11 cells (3.125 uM) was 352000 and 428300 and 434800 and 455400 and 358000 and 465500; in the test with RS4:11 cells (6.25 uM) it was 339600 and 384800 and 395500 and 428900 and 341900 and 416000; in the test with RS4:11 cells (12.5 uM), 266500 and 298700 and 305700 and 333300 and 270500 and 326800; in the test with RS4:11 cells (25 uM) it was 85450 and 98110 and 94850 and 106300 and 88910 and 106600. Also, the inhibition rate with RS4:11 cells (12.5 uM, 12.5 µM) was 37% and 29% and 28% and 21% and 36% and 23%; in the test with RS4:11 cells (25 uM, 25 µM), 80% and 77% and 78% and 75% and 79%; in the test on RS4:11 cells (50 uM) it was 100%; in the test on RS4:11 cells (100 uM), 100%.

B1: cp4 (peptide)
peptide: CPIRYGWDEFC
modifications: linker 1-11 via cADT (inferred)
notes: cp4 is cp2 with E6 substituted by G6; source: synthetic peptide
Take B1: the Kd in test [3] is 470 nM; in test [4], 80 nM.

B2: cp5 (peptide)
peptide: CPIRYPWDEFC
modifications: linker 1-11 via cADT (inferred)
notes: cp5 is cp2 with E6 substituted by P6; source: synthetic peptide
Consider B2, for which the Kd in test [3] amounted to 40 nM; in test [4] it was 80 nM.
